Measured values: the supplement of paper PMC10331698
± gives the standard deviation of the averaged measurements.

How the values were obtained:
Assay in all cases: level (log10 ratio to DMSO vehicle control); higher = higher biomarker level / cell amount than vehicle control
[1] = compound: COC(=O)CCC(F)(F)C(F)(F)C(F)(F)C(F)(F)F [Methyl 2H,2H,3H,3H-perfluoroheptanoate]; conditions: in DMSO
Protocol: (§1)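 BioMAP Diversity Plus panel of 12 human primary cell co-culture systems (3C, 4H, LPS, SAg, BT, BF4T, BE3C, CASM3C, HDF3CGF, KF3CT, MyoF, Mphg). Compounds were added 1 h before stimulation and left for 24 h (MyoF 48 h; BT 72 h for soluble read-outs or 6 d for IgG). Biomarkers were read by ELISA, cytotoxicity by SRB, PBMC viability and proliferation by Alamar Blue. Each well value was divided by the mean of 8 DMSO control wells on the same plate and log10 transformed; duplicate blinded samples were tested at 4 concentrations.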

[2] = compound: FC(F)C(F)(F)COCC1CO1 [((2,2,3,3-Tetrafluoropropoxy)methyl)oxirane]; conditions: in DMSO
Protocol: as §1

[3] = compound: OCCC(F)(F)C(F)(F)C(F)(F)C(F)(F)C(F)(F)C(F)(F)F [6:2 Fluorotelomer alcohol]; conditions: in DMSO
Protocol: as §1

Perfluorobutanoic acid = compound: O=C(O)C(F)(F)C(F)(F)C(F)(F)F [Perfluorobutanoic acid]; conditions: in DMSO
Protocol: as §1

[4] = compound: NCC(F)(F)C(F)(F)C(F)(F)C(F)(F)C(F)(F)C(F)(F)C(F)(F)F [1H,1H-Perfluorooctylamine]; conditions: in DMSO
Protocol: as §1

[5] = compound: OCCCC(F)(F)C(F)(F)C(F)(F)C(F)(F)C(F)(F)C(F)(F)C(F)(F)F [7:3 Fluorotelomer alcohol]; conditions: 6700 nM; in DMSO
Protocol: as §1

Perfluorodecanoic acid = compound: O=C(O)C(F)(F)C(F)(F)C(F)(F)C(F)(F)C(F)(F)C(F)(F)C(F)(F)C(F)(F)C(F)(F)F [Perfluorodecanoic acid]; conditions: in DMSO
Protocol: as §1

Test System	level (log10) ([1]; 6700 nM)	level (log10) ([1]; 20000 nM)	level (log10) ([1]; 60000 nM)	level (log10) ([2]; 6700 nM)	level (log10) ([2]; 20000 nM)	level (log10) ([2]; 60000 nM)	level (log10) ([3]; 6700 nM)	level (log10) ([3]; 20000 nM)	level (log10) (Perfluorobutanoic acid; 6700 nM)	level (log10) (Perfluorobutanoic acid; 20000 nM)	level (log10) (Perfluorobutanoic acid; 60000 nM)	level (log10) ([4]; 6700 nM)	level (log10) ([4]; 20000 nM)	level (log10) ([4]; 60000 nM)	level (log10) [5]	level (log10) (Perfluorodecanoic acid; 6700 nM)	level (log10) (Perfluorodecanoic acid; 20000 nM)
HDF3CGF:SRB	0.0005 ± 0.005	-0.001 ± 0.057	0.0735 ± 0.091	0.004 ± 0.0057	-0.002 ± 0.02	-0.011 ± 0.1	-0.0245 ± 0.073	0.008 ± 0.054	0.0125 ± 0.0064	-0.007 ± 0.0028	0.002 ± 0.0071	-0.0315 ± 0.0078	0.0335 ± 0.046	0.0315 ± 0.12	-0.014 ± 0.027	0.0725 ± 0.044	0.131 ± 0.016
3C:CD142/Tissue Factor	-0.0115 ± 0.066	-0.038 ± 0.021	-0.0005 ± 0.026	-0.0175 ± 0.07	-0.032 ± 0.05	-0.036 ± 0.071	-0.003 ± 0.044	-0.014 ± 0.025	0.011 ± 0.0042	0.0085 ± 0.021	0.0035 ± 0.043	-0.0275 ± 0.00071	-0.0105 ± 0.00071	-0.0255 ± 0.011	-0.007 ± 0.0057	-0.013 ± 0.013	-0.029 ± 0.0042
HDF3CGF:CXCL11/I-TAC	-0.002 ± 0.013	0.0215 ± 0.0021	-0.0055 ± 0.011	0.027 ± 0.013	-0.0005 ± 0.0035	0.003 ± 0.0057	0.002 ± 0.0071	0.0155 ± 0.0035	0.005 ± 0.016	-0.0035 ± 0.011	0.001 ± 0.023	-0.0135 ± 0.035	-0.021 ± 0.033	-0.046 ± 0.078	-0.0445 ± 0.023	0.046 ± 0.0014	-0.469 ± 0.28
KF3CT:TIMP-2	-0.004 ± 0.017	-0.012 ± 0.011	-0.0125 ± 0.043	-0.0135 ± 0.016	-0.0115 ± 0.019	-0.0045 ± 0.026	0.0005 ± 0.016	0.0015 ± 0.015	-0.005 ± 0.014	-0.009 ± 0.0071	-0.002 ± 0.0014	-0.013	-0.01 ± 0.018	-0.017 ± 0.013	-0.0005 ± 0.028	0.003 ± 0.03	-0.051 ± 0.034
lMphg:sIL-10	-0.0515 ± 0.029	-0.117 ± 0.12	0.0005 ± 0.037	-0.087 ± 0.024	-0.043 ± 0.027	0.0075 ± 0.018	-0.032 ± 0.02	-0.143 ± 0.041	0.034 ± 0.013	-0.005 ± 0.03	-0.02 ± 0.037	-0.067 ± 0.14	-0.002 ± 0.082	-0.022 ± 0.04	-0.0345 ± 0.032	-0.018 ± 0.055	-0.036 ± 0.028
BE3C:uPA	-0.013 ± 0.042	-0.0155 ± 0.018	-0.0155 ± 0.012	-0.0105 ± 0.025	-0.021 ± 0.035	-0.004 ± 0.025	-0.004	-0.012 ± 0.0028	-0.0065 ± 0.026	-0.007 ± 0.011	-0.015 ± 0.014	-0.011 ± 0.011	-0.0135 ± 0.0021	-0.002 ± 0.014	0.0005 ± 0.016	-0.0025 ± 0.011	-0.38 ± 0.0099
MyoF:Collagen IV	-0.0335 ± 0.03	-0.0285 ± 0.021	-0.0115 ± 0.029	-0.0035 ± 0.013	-0.0065 ± 0.016	0.0065 ± 0.025	-0.0005 ± 0.013	-0.002 ± 0.013	-0.032 ± 0.051	-0.0215 ± 0.04	-0.0055 ± 0.018	-0.0035 ± 0.018	-0.009 ± 0.016	-0.0055 ± 0.0035	-0.02 ± 0.0085	0.334 ± 0.037	0.38 ± 0.086
HDF3CGF:CXCL8/IL-8	-0.006 ± 0.013	-0.01 ± 0.024	-0.0035 ± 0.0021	-0.0145 ± 0.016	-0.004 ± 0.0014	0.005 ± 0.0085	0.004 ± 0.0028	0.004	-0.002 ± 0.0014	-0.004 ± 0.0085	0.0015 ± 0.0021	-0.0025 ± 0.005	-0.018 ± 0.0099	-0.002 ± 0.0042	-0.005 ± 0.0042	0.0065 ± 0.005	0.02 ± 0.011
lMphg:CD40	-0.0295 ± 0.0035	-0.0285 ± 0.005	-0.039 ± 0.034	0.0185 ± 0.061	0.0195 ± 0.029	0.0015 ± 0.011	-0.029 ± 0.0057	-0.0435 ± 0.025	-0.049 ± 0.11	-0.025 ± 0.038	0.023 ± 0.068	0.0025 ± 0.005	-0.0125 ± 0.035	-0.069 ± 0.054	-0.0135 ± 0.0078	-0.0025 ± 0.039	-0.0385 ± 0.05
CASM3C:HLA-DR	-0.0185 ± 0.005	-0.014 ± 0.018	-0.011 ± 0.028	0.001 ± 0.0085	-0.001 ± 0.0099	0.0225 ± 0.043	0 ± 0.025	-0.025 ± 0.023	0.012 ± 0.011	0.0065 ± 0.015	-0.0085 ± 0.018	-0.01 ± 0.0028	-0.0085 ± 0.032	0.029 ± 0.0042	0.008 ± 0.0071	0	0.006 ± 0.014
CASM3C:SRB	0.003 ± 0.0042	-0.003 ± 0.013	-0.0015 ± 0.0035	-0.0005 ± 0.015	-0.003 ± 0.0042	0.0015 ± 0.00071	0.0075 ± 0.005	-0.003 ± 0.0028	0.0005 ± 0.0064	-0.0055 ± 0.011	0.002 ± 0.0042	-0.002 ± 0.0028	-0.001 ± 0.013	0.0035 ± 0.018	0.006 ± 0.0028	0.0055 ± 0.0064	0.0055 ± 0.0064
MyoF:SRB	-0.004 ± 0.0028	0.0065 ± 0.0035	0.0065 ± 0.0064	-0.003	-0.007 ± 0.0042	-0.0035 ± 0.0035	-0.002 ± 0.0085	0 ± 0.0028	0.0005 ± 0.0035	-0.001 ± 0.0085	-0.0125 ± 0.0035	0.0035 ± 0.0021	-0.002 ± 0.0057	0.0005 ± 0.005	0.006 ± 0.0071	-0.033 ± 0.0014	-0.08 ± 0.0099
BE3C:SRB	-0.004 ± 0.0028	-0.0015 ± 0.0021	0.002	-0.0015 ± 0.005	-0.001 ± 0.0014	0.0085 ± 0.023	-0.0025 ± 0.0021	-0.0045 ± 0.0021	-0.009 ± 0.011	0 ± 0.0042	-0.0005 ± 0.011	0	0.0035 ± 0.00071	0.013 ± 0.024	-0.0065 ± 0.0092	-0.0245 ± 0.005	-0.664 ± 0.021
CASM3C:PAI-I	-0.0195 ± 0.0078	-0.006 ± 0.0099	-0.0095 ± 0.016	-0.0035 ± 0.0021	-0.001 ± 0.011	0.0065 ± 0.011	0.0105 ± 0.00071	0.005 ± 0.0057	-0.002 ± 0.0099	-0.003 ± 0.018	-0.0005 ± 0.011	-0.0055 ± 0.012	0.0025 ± 0.0064	-0.0015 ± 0.005	-0.005 ± 0.0014	0.001 ± 0.0014	-0.0015 ± 0.005
HDF3CGF:PAI-I	0.0005 ± 0.0035	-0.0055 ± 0.0092	0.002 ± 0.021	0.0065 ± 0.016	0.0065 ± 0.0064	0.0035 ± 0.011	-0.013 ± 0.014	-0.004 ± 0.013	-0.0025 ± 0.029	0.007 ± 0.054	0.018 ± 0.052	0.008 ± 0.033	-0.018 ± 0.0042	-0.003 ± 0.023	0.0175 ± 0.029	0.15 ± 0.051	-0.107 ± 0.1
CASM3C:M-CSF	-0.0155 ± 0.016	-0.031 ± 0.021	0.013 ± 0.054	-0.0115 ± 0.021	-0.029 ± 0.0014	-0.0025 ± 0.084	-0.018 ± 0.0014	0.019 ± 0.016	-0.0095 ± 0.0064	-0.0205 ± 0.013	0.0275 ± 0.063	-0.059 ± 0.027	-0.0055 ± 0.0078	0.0115 ± 0.061	0.007 ± 0.0042	0.0145 ± 0.0078	0.0345 ± 0.019
lMphg:CD69	-0.016 ± 0.028	-0.029 ± 0.033	0.006 ± 0.017	-0.048 ± 0.02	-0.001 ± 0.0071	-0.028 ± 0.033	-0.0205 ± 0.0078	-0.017 ± 0.0028	0.0505 ± 0.066	0.0455 ± 0.0021	0.087 ± 0.1	-0.039 ± 0.0099	-0.0475 ± 0.019	-0.0265 ± 0.00071	-0.0115 ± 0.011	-0.013 ± 0.054	-0.055 ± 0.052
